From patent US10342796B2, “Acrylanilide derivative, preparation method, and applications thereof in pharmacy” (Ancureall Pharmaceutical (Shanghai) Co., Ltd., priority 2015, dated 2019)

Tests used:
Test in all cases: Growth inhibition GI50 in vitro (CCK8/MTT, 72 h)
Assay type in all cases: cell-based, human
PC-9 (EGFR dE746-A750) = conditions: Homo sapiens; Table 13, 72 h; read-out: Range of GI50 PC-9 (EGFR dE746-A750)
Method: (§1) PC-9ER is an acquired Erlotinib resistance cell line of PC-9 cells developed by the investor. […] The four cell lines above were cultured with 1×RPMI1640 complete medium (supplement with 10% FBS). Human colon cancer cell line SW48 (EGFR G719S positive, ATCC). was cultured with L15 complete medium (10% FB S).
(§2) The suspension cells were collected by centrifugation. The supernatant was discard and the cell pellet was resuspended and counted. Different cell concentrations (5˜10×10^4 cells/mL) were prepared according to the growth cycle of each cell line and then seeded on a 96-well plate (Corning), 100 μL/well. The cells were incubated over night at 37° C., 5% CO2. The compounds were added to the cells on the second day with 2 wells in parallel. The final concentration of organic solvent shall not exceed 1%. The cells were continually incubated for 72 h, and then subjected to MTT assay.
(§3) The present compounds and the reference compounds were dissolved with DMSO (Sigma), respectively. […] The storage concentration of compounds was 10 mM and kept at −20° C. They were diluted by 2 times or 10 times with serial dilution before using.
(§4) Dojindo CCK8 reagent kit was used as MTT assay. […] FC meter was used as microplate reader.
(§5) Adherent cell culture medium was discard and immediately replaced with fresh prepared medium which contains 10% CCK8 reagent (100 μL/well). For the suspension cells, CCK8 was directly added to 10% of the final concentration. The cells were continually incubated for 1˜4 h. When the color of control wells turned to dark yellow, the absorption value was measured at OD450 nm. The cell growth rate was calculated according to the following formula: cell growth rate (%)=100*(T−T0)/(C−T0), T=optical density of drug treatment cell well—optical density of blank control well; T0=optical density of cell well before drug treatment—optical density of blank control well; C=optical density of cell well of solvent control group—optical density of blank control well. […] The experiment was independently repeated 1˜3 times, and subject to biological statistical analysis.

H1975 (EGFR L858R/T790M) = conditions: Homo sapiens, NCI-H1975; Table 13, 72 h; read-out: Range of GI50 H1975 (EGFR L858R/T790M)
Method: as §1, §2, §3, §4, §5

N87 (HER2 Amp) = conditions: Homo sapiens; Table 13, 72 h; read-out: Range of GI50 N87 (HER2 Amp)
A549 (EGFR WT) = conditions: Homo sapiens, A549; Table 13, 72 h; read-out: Range of GI50 A549 (EGFR WT)
Source text: EGFR wild type cell lines: human epidermal cancer cell line A431 (EGFR WT, amplification and high expression, from Shanghai Cell Bank of Chinese Academy of Sciences and ATCC), NSCLC cell lines NCI-H460 (EGFR WT, Kras G61H and PI3KCA E545K mutants, ATCC) and NCI-H1299 (EGFR WT, ATCC), melanoma cell line A375 (EGFR WT and BRAF V600E mutant, from Shanghai Cell Bank of Chinese Academy of Sciences, ATCC), human lung cancer cell line NCI-H292 (EGFR WT, from human lung mucoepidermoid carcinoma/lymphatic metastasis, purchased from Shanghai Cell Bank of Chinese Academy of Sciences) were cultured with 1×RPMI1640 complete medium which was supplement with 10% FBS. NSCLC cell line A549 (EGFR WT and Kras G12S mutant, from Shanghai Cell Bank of Chinese Academy of Sciences) was cultured with 1×Ham'S F12K complete medium which was supplement with 10% FBS, 1% double-antibiotics and 2 mM glutamine.
as §2, §3, §4, §5

SMILES	GI50 (PC-9 (EGFR dE746-A750))	GI50 (H1975 (EGFR L858R/T790M))	GI50 (A549 (EGFR WT))	GI50 (N87 (HER2 Amp))
C=CC(=O)Nc1cc(Nc2nccc(-n3ccc4c(O)cccc43)n2)c(OC)cc1N(C)CCN(C)C [Compound 204, N-(5-(4-(4-hydroxyl-1H-indol-1-yl)-pyrimidin-2-ylamino)-2-(2-(dimethylamino-ethyl)-methyl-amino)-4-methoxyl-phenyl)-acrylamide]	10 to 100 nM	10 to 100 nM	> 1000 nM	< 10 nM
C=CC(=O)Nc1cc(Nc2nccc(-n3ccc4c(OCCCCCC)cccc43)n2)c(OC)cc1N(C)CCN(C)C [Compound 206, N-(5-(4-(4-n-hexyloxy-1H-indol-1-yl)-pyrimidin-2-ylamino)-2-(2-(dimethylamino-ethyl)-methyl-amino)-4-methoxyl-phenyl)-acrylamide]	100 to 1000 nM	100 to 1000 nM	> 1000 nM	100 to 1000 nM
C=CC(=O)Nc1cc(Nc2cc(Nc3cc(OC)c(Cl)cc3Cl)ncn2)c(OC)cc1OCCN(C)C [Compound 242, N-(5-(6-(2,4-dichloro-5-methoxyl-phenylamino)-pyrimidin-4-ylamino)-2-(2-dimethylamino-ethoxyl)-4-methoxyl-phenyl)-acrylamide]	< 10 nM	< 10 nM	> 1000 nM	< 10 nM
C=CC(=O)Nc1cc(Nc2cc(Nc3ccc(OCCN4CCOCC4)c(Cl)c3)ncn2)c(OC)cc1N(C)CCN(C)C [Compound 215, N-(5-(6-(3-chloro-4-(2-morpholin-4-yl-ethoxyl)-phenylamino)-pyrimidin-4-ylamino)-2-((2-dimethylamino-ethyl)-methyl-amino)-4-methoxyphenyl)-acrylamide]	< 10 nM	10 to 100 nM	> 1000 nM	10 to 100 nM
C=CC(=O)Nc1cc(Nc2ncc(Cl)c(-n3ccc4c(OC)cccc43)n2)c(OC)cc1N(C)CCN(C)C [Compound 203, N-(5-(4-(4-methoxyl-1H-indol-1-yl)-5-chloropyrimidin-2-ylamino)-2-(2-(dimethylamino-ethyl)-methyl-amino)-4-methoxyl-phenyl)-acrylamide]	< 10 nM	< 10 nM	> 1000 nM	< 10 nM
C=CC(=O)Nc1cc(Nc2cc(Nc3cc(OC)c(Cl)cc3Cl)ncn2)c(OC)cc1OCCN1CCOCC1 [Compound 243]	10 to 100 nM	10 to 100 nM	> 1000 nM	10 to 100 nM
C=CC(=O)Nc1cc(Nc2cc(Nc3ccc(OCC4CCCO4)c(Cl)c3)ncn2)c(OC)cc1N(C)CCN(C)C (stereo not drawn) [Compound 254, N-(5-(6-(3-chloro-4-(tetrahydrofuran-2-ylmethoxy)-phenylamino)-pyrimidin-4-ylamino)-2-((2-dimethylamino-ethyl)-methyl-amino)-4-methoxyl-phenyl)-acrylamide]	10 to 100 nM	10 to 100 nM	> 1000 nM	10 to 100 nM
C=CC(=O)Nc1cc(Nc2cc(Nc3ccc(Cl)c(C(F)(F)F)c3)ncn2)c(OC)cc1N(C)CCN(C)C [Compound 228, N-(5-(6-(4-chloro-3-trifluoromethyl-phenylamino)-pyrimidin-4-yl-amino)-2-((2-dimethylamino-ethyl)-methyl-amino)-4-methoxyl-phenyl)-acrylamide]	< 10 nM	10 to 100 nM	> 1000 nM	10 to 100 nM
C=CC(=O)Nc1cc(Nc2cc(Nc3ccc(O)c(Cl)c3)ncn2)c(OC)cc1N(C)CCN(C)C [Compound 253, N-(5-(6-(3-chloro-4-hydroxylphenylamino)-pyrimidin-4-ylamino)-2-((2-dimethylamino-ethyl)-methyl-amino)-4-methoxyl-phenyl)-acrylamide]	10 to 100 nM	10 to 100 nM	> 1000 nM	10 to 100 nM
C=CC(=O)Nc1cc(Nc2cc(Nc3ccc(C(F)(F)F)c(Cl)c3)ncn2)c(OC)cc1N(C)CCN(C)C [Compound 234, N-(5-(6-(3-chloro-4-trifluoromethyl-phenylamino)-pyrimidin-4-yl-amino)-2-((2-dimethylamino-ethyl)-methyl-amino)-4-methoxyl-phenyl)-acrylamide]	10 to 100 nM	10 to 100 nM	> 1000 nM	10 to 100 nM
C=CC(=O)Nc1cc(Nc2cc(Nc3ccc(OC(C)(C)C)c(Cl)c3)ncn2)c(OC)cc1N(C)CCN(C)C [Compound 250, N-(5-(6-(3-chloro-4-tert-butoxy-phenylamino)-pyrimidin-4-yl-amino)-2-((2-dimethylamino-ethyl)-methyl-amino)-4-methoxyl-phenyl)-acrylamide]	< 10 nM	10 to 100 nM	> 1000 nM	< 10 nM
C=CC(=O)Nc1cc(Nc2cc(Nc3ccc(OC)c(S(=O)(=O)NC)c3)ncn2)c(OC)cc1N(C)CCN(C)C [Compound 238]	100 to 1000 nM	100 to 1000 nM	> 1000 nM	100 to 1000 nM

Continued, in another order:

GI50 (PC-9 (EGFR dE746-A750))	GI50 (H1975 (EGFR L858R/T790M))	GI50 (A549 (EGFR WT))	SMILES	GI50 (N87 (HER2 Amp))
100 to 1000 nM	100 to 1000 nM	> 1000 nM	C=CC(=O)Nc1cc(Nc2nccc(-n3ccc4c(OC)cccc43)n2)c(OC)cc1N1CCC(N2CCN(C)CC2)CC1 [Compound 208, N-(5-(4-(4-methoxyl-1H-indol-1-yl)-pyrimidin-2-ylamino)-2-(4-(4-methyl-piperazin-1-yl)-piperidin-1-yl)-4-methoxyl-phenyl)-acrylamide]	10 to 100 nM
< 10 nM	100 to 1000 nM	> 1000 nM	C=CC(=O)Nc1cc(Nc2cc(Nc3ccc(OC)c(Cl)c3)ncn2)c(OC)cc1N1CCN(C2CCN(C)CC2)CC1 [Compound 227, N-(5-(6-(3-chloro-4-methoxyl-phenylamino)-pyrimidin-4-ylamino)-2-(4-(1-methylpiperidin-4-yl)-piperazin-1-yl)-4-methoxyl-phenyl)-acrylamide]	10 to 100 nM
< 10 nM	10 to 100 nM	> 1000 nM	C=CC(=O)Nc1cc(Nc2cc(Nc3cc(OC)c(Cl)cc3Cl)ncn2)c(OC)cc1N1CCC(N2CCOCC2)CC1 [Compound 240, N-(5-(6-(2,4-dichloro-5-methoxyl-phenylamino)-pyrimidin-4-yl-amino)-2-(4-(morpholin-1-yl)-piperidin-1-yl)-4-methoxyl-phenyl)-acrylamide]	< 10 nM
< 10 nM	10 to 100 nM	> 1000 nM	C=CC(=O)Nc1cc(Nc2cc(Nc3cc(OC)c(Cl)cc3Cl)ncn2)c(OC)cc1OCCN1CCN(C)CC1 [Compound 247, N-(5-(6-(2,4-dichloro-5-methoxyl-phenylamino)-pyrimidin-4-yl-amino)-2-(2-(4-methyl-piperazin-1-yl)-ethoxyl)-4-methoxyl-phenyl)-acrylamide]	< 10 nM
< 10 nM	10 to 100 nM	> 1000 nM	C=CC(=O)Nc1cc(Nc2cc(Nc3cc(OC)c(Cl)cc3Cl)ncn2)c(OC)cc1N1CCN(C)CC1 [Compound 239, N-(5-(6-(2,4-dichloro-5-methoxyl-phenylamino)-pyrimidin-4-yl-amino)-2-(4-methyl-piperazin-1-yl)-4-methoxyl-phenyl)-acrylamide]	10 to 100 nM
100 to 1000 nM	100 to 1000 nM	> 1000 nM	C=CC(=O)Nc1cc(Nc2cc(Nc3cc(OC)c(Cl)cc3Cl)ncn2)c(OC)cc1N(C)CC(=O)N1CCN(C)CC1 [Compound 241, N-(5-(6-(2,4-dichloro-5-methoxyl-phenylamino)-pyrimidin-4-yl-amino)-2-(methyl-(2-(4-methyl-piperazin-1-yl)-2-oxoethyl)-amino)-4-methoxyl-phenyl)-acrylamide]	100 to 1000 nM
